The test system of one assay is mammary carcinoma cells. The assay is described as follows: In vivo invasion of mammary carcinoma cells under Erlotinib.
In the next assay the test system is cells expressing MenaINV. Nature of the assay: Membrane protrusion after 1 nM EGF with increasing doses of Erlotinib. The assay is classed as cell-based. How it is done:
FIG. 6A-6D: Cells expressing MenaINV are resistant to EGFR targeted kinase inhibitors. [A] […] Data was combined to generate novel hypothesis regarding clinically-relevant treatment regimes for invasive breast cancer. […]. Membrane protrusion was quantified 8 min post-EGF/drug addition. *p<0.05, **p<0.01, ***p<0.001. […]. Cells were serum starved and then stimulated with EGF and drug for 3 min. Cells were lysed and the level of EGFR-pY1173 was determined by semi-quantitative Western Blot.
. To test this hypothesis, serum-starved cells were treated with 1.0 nM EGF and increasing doses of DMSO (carrier control) or Erlotinib and measured EGFR phosphorylation at 3 min post-stimulation (FIG. 6B). […]. […] Further, electron microscopy was performed using ultra-small gold particles to examine receptor distribution along the cell membrane to determine if increased clustering of the receptor might affect drug binding or signal propagation. However, no significant difference was found in receptor clustering in the analysis (FIG. 7).

For assay [1], the system named is MDA-MB231 cells. Nature of the assay: In vitro invasion into collagen I gels. It is filed as cell-based. To be noted: 0.25 or 0.5 nM EGF.
Assay [2] concerns EGFR Y1173 phosphorylation in MDA-MB231 cells. Nature of the assay: EGFR Y1173 phosphorylation on PTP1b inhibition, semi-quantitative Western blotting. It is filed as cell-based. To be noted: 0.25 nM EGF, 10 μM, 30 min preincubation. How it is done: (§1) FIG. 9A-9C: PTP1b inhibition increases EGFR pathway activation. MDA-MB231 cells expressing GFP-control or GFPMena^INV were serum starved for 4 h and stimulated with 0.25 nM EGF in the presence or absence of 10 μM PTP1b (30 min preincubation). Phosphorylation of EGFR on Y1173 was measured using semi-quantitative Western blotting (A, B) of quadruplicate lysates. […] MTLn3 cells were transiently transfected with a mCherry-tagged PHdomain biosensor targeting PI(4,5)P2, starved in L15 media, pre-incubated with 10 μM PTP1bi and then stimulated with 0.5 nM EGF.

The test system of assay [3] is xenograft tumors of MTLn3 cells. Nature of the assay: In vivo invasion assay (needle collection from xenograft tumors). Also noted: species or system mouse. Here is the method: An in vivo invasion assay was employed to determine the effect of decreased PTP1b activity on tumor cell chemotaxis. To mimic the in vitro invasion experiments, 50 μM PTP1b inhibitor was added to needles with 10% matrigel and varying concentrations of EGF, the needles inserted into xenograft tumors of MTLn3 cells expressing either GFP or GFP-Mena^INV and cells allowed to crawl into the needle during a 4 h period. Similar to the results obtained in vitro, addition of PTP1b inhibitor to needles used to collect cells had no effect on the number of cells ectopically expressing Mena^INV collected (FIG. 2G). However, PTP1b inhibition increased the sensitivity of control cells 5-fold, decreasing the concentration of EGF required for chemotaxis into the needles from 25 nM to 5 nM. In this assay the discrepancy between expression of Mena^INV and inhibition of PTP1b may be due to the time lag required for inhibitor efficacy.
However, viability of the mouse under anesthesia precludes collection of cells for longer periods than 4 h, therefore this effect is difficult to quantify.

The subject of assay [4] is MTLn3 cells. The assay is described as follows: EGF-stimulated lamellipodial (membrane) protrusion in MTLn3 cells. It is filed as cell-based. How it is done:
(§2) FIG. 2A-2G. Inhibition of PTP1b phenocopies expression of Mena^INV. (A) MDA-MB231 cells were serum starved for 4 h with addition of 10 μM PTP1b inhibitor (EMD Calbiochem) for the time indicated. Cells were then stimulated with 0.5 nM EGF and lamellipodial protrusion was measured 8 min post-stimulation. […] (G) Inhibition of PTP1b in vivo shifts the sensitivity of GFP-Control MTLn3 xenografted cells to 5 nM (a 5× increase in sensitivity). *p<0.05 and **p<0.01 by ANOVA and Tukey post-test.
FIG. 8A-8D: The activity of SHIP2 is not required for early stages of Mena^INV-induced lamellipodial protrusion. MDA-MB231 (A,B) and MTLn3 (C,D) cells were incubated for 4 h with 10 μM AS1949490 in serum-free medium. Cells were stimulated with 0.25 nM (A,B) or 0.5 nM (C,D) EGF and membrane protrusion was recorded 8 min.
What could account for the phenotypes associated with inclusion of the INV exon of Mena, that include: increased activation of EGFR and downstream EGFR-mediated, motility-specific signaling pathways, increased cell invasion, and decreased efficacy of tyrosine kinase inhibition? One route to aberrant signal amplification is dysregulation of control nodes within the protein network, such as phosphatases, that could lead to prolonged or amplified phosphorylation states. Identification of potential Mena and Mena^INV interacting partners that might affect phosphatase activity can shed light on this. Attempts were made at identification of Mena isoforms-specific interacting partners via mass spectrometric analysis. Several unsuccessful attempts to purify Mena interacting partners through a co-immunprecipitation and the mass spectrometric approach resulted. A bioinformatics screening approach was then used. A list of 38 human phosphatases was queried for potential Ena/VASP interaction motifs, with the hypothesis that an interaction between Mena^INV and a phosphatase important for attenuating growth factor responses could lead to increased signaling upon growth factor stimulation. […]

The test system of assay [5] is MDA-MB231 cells. Nature of the assay: EGF-stimulated lamellipodial (membrane) protrusion in MDA-MB231 cells. It is filed as cell-based. To be noted: for lamellipodial protrusion 8 min post-stimulation: 0.5 nM EGF. Here is the method: as §2
FIG. 8A-8D: The activity of SHIP2 is not required for early stages of Mena^INV-induced lamellipodial protrusion. MDA-MB231 (A,B) and MTLn3 (C,D) cells were incubated for 4 h with 10 μM AS1949490 in serum-free medium. Cells were stimulated with 0.25 nM (A,B) or 0.5 nM (C,D) EGF and membrane protrusion was recorded 8 min. […]
In contrast, inhibition of PTP1b increased lamellipodial protrusion in MDA-MB231-GFP control cells in a time dependent manner in response to 0.5 nM EGF.

For assay [6], the system named is MTLn3 cells. Nature of the assay: PI(4,5)P2 hydrolysis, mCherry-tagged PH-domain biosensor (PLCγ activity). It is filed as cell-based. To be noted: GFP-control MTLn3, 10 μM pre-incubation, 0.5 nM EGF, 3 min post-EGF, versus DMSO. Here is the method: as §1
Assay [7] relates to MET. The assay is described as follows: HGF-stimulated protrusion assay with MET inhibitor. It is filed as cell-based. To be noted: +5 ng/ml HGF. How it is done:
FIG. 11: Cell protrusion assays were performed in which starved carcinoma cells expressing GFP, GFP-Mena or GFP-Mena^INV were stimulated with different concentrations of hepatocyte growth factor (HGF) (analogously as done with EGF stimulation of EGFR) followed by a measurement of cell protrusion several minutes later. The HGF concentrations (x-axis) are nM and the Y-axis is increase in cell size (a reflection of protrusion) compared to unstimulated cells.

The test system of assay [8] is MET. The assay is described as follows: MET kinase activity in cells with MET inhibitor. The assay is classed as cell-based.

“Also recorded” adds a separate entry of the source.

On to `C#Cc1cccc(Nc2ncnc3cc(OCCOC)c(OCCOC)cc23)c1` [Erlotinib], for which the in vivo invasion entry in the assay with mammary carcinoma cells (GFP-expressing mammary carcinoma cells) was “abrogates in vivo invasion”; with mammary carcinoma cells (cells that express Mena^INV), “does not fully block invasion”. For the same compound, the “drug required to decrease lamellipodial protrusion, Mena^INV cells compared to control GFP or Mena cells” value in the assay on cells expressing MenaINV (1 nM EGF, 8 min post-EGF/drug addition) was “ten-fold more Erlotinib was required; also recorded: Significantly higher doses of Erlotinib (Tarceva) are required”. In the assay on cells expressing MenaINV (across cell lines (FIG. 6D)), the “efficacy after normalizing protrusion to the no-drug response of each cell line” value was “roughly equivalent; also recorded: a common response across cell lines”.
Turning to `CCc1oc2cc(S(=O)(=O)Nc3ccc(S(=O)(=O)Nc4nccs4)cc3)ccc2c1C(=O)c1cc(Br)c(O)c(Br)c1` [PTP1b inhibitor], the “invasion into collagen I gels” value with MDA-MB231 cells [1] (MDA-MB231-GFP and -GFP-Mena) is recorded as “increased”; in the assay with MDA-MB231 cells [1] (cells expressing Mena^INV), “no significant effect”. Besides, the “EGFR Y1173 phosphorylation” value in assay [2] (GFP control cells) is “increases EGFR phosphorylation on Y1173; also recorded: increased EGFR Y1173 phosphorylation”; in assay [2] (GFP control cells, listed as PTP1bi) it was “increased EGFR Y1173 phosphorylation”; in assay [2] (cells expressing Mena^INV), “no additional affect”. In addition, the “increase in sensitivity of control cells to EGF in vivo” value in [3] (GFP-control MTLn3 xenograft, 50 μM inhibitor in needles, 4 h) was 5 fold. Moreover, in assay [3] (GFP-control MTLn3 xenograft, 50 μM inhibitor, 25 nM without inhibitor), the “concentration of EGF required for chemotaxis into the needles with inhibitor” value is listed as 5 nM. The “number of cells collected into needles” value in assay [3] (MTLn3 cells ectopically expressing Mena^INV, 50 μM inhibitor) is listed as “had no effect”. The “membrane protrusion (magnitude and kinetics)” value in the assay on MTLn3 cells [4] (unmodified MTLn3 cells, EGF (0.5 nM, 5 nM elsewhere in the source)) was “increased the magnitude and kinetics of membrane protrusion; also recorded: significantly enhanced”. For the same compound, the “lamellipodial protrusion 8 min post-stimulation” value in the assay on MDA-MB231 cells [5] (GFP-control cells, 10 μM, 30 min pre-incubation) is reported as “complete phenocopy of Mena^INV-dependent responses; also recorded: significant increase in membrane protrusion”; with MDA-MB231 cells [5] (cells expressing Mena^INV, 10 μM, 30 min pre-incubation) it was “had no effect”. The kinetics of protrusion entry in the assay with MDA-MB231 cells [5] (MDA-MB231-GFP control cells, 30 min pre-incubation) is reported as “increased the kinetics of protrusion”; in the assay on MDA-MB231 cells [5] (MDA-MB231-GFP-Mena^INV cells), “without affecting the dynamics”. The membrane protrusion entry is “increased membrane protrusion; also recorded: protrusion was increased” in the assay with MDA-MB231 cells [5] (MDA-MB231-GFP-Mena and GFP control cells, 0.25 nM EGF); “no further increase was measured” in the assay on MDA-MB231 cells [5] (MDA-MB231-GFP-Mena^INV cells, 0.25 nM EGF); “does not increase membrane protrusion” in the assay with MDA-MB231 cells [5] (cells expressing Mena^INV, 0.125 nM EGF (data not shown)). Moreover, the “PI(4,5)P2 hydrolysis (PLCγ activity)” value is on record as “increased PI(4,5)P2 hydrolysis” with MTLn3 cells [6] and “PLCγ activity is greater” with MTLn3 cells [6] (listed as PTP1bi).
Turning to `Cc1[nH]c(/C=C2\C(=O)Nc3ccc(S(=O)(=O)N(C)c4cccc(Cl)c4)cc32)c(C)c1C(=O)N1CCN(C)CC1` [SU11274], the “response of Mena^INV expressing cells in protrusion assay” value with MET [7] was “resistant”. In addition, the “response of Mena^INV expressing cells, MET kinase activity” value with MET [8] was “resistant”.
Turning to `C[C@H](NC(=O)c1sccc1OCc1ccc(Cl)cc1)c1ccccc1` [AS1949490], the “membrane protrusion at 8 min post-EGF stimulation” value in the assay with MTLn3 cells [4] (MTLn3-GFP-Mena^INV, 10 μM for 4 h, 0.5 nM EGF) is recorded as “reduced the protrusion response; also recorded: decreased membrane protrusion to GFPcontrol levels”; in the assay with MDA-MB231 cells [5] (MDA-MB231-GFP-Mena^INV, 10 μM for 4 h, 0.25 nM EGF) it was “reduced the protrusion response; also recorded: decreased membrane protrusion to GFPcontrol levels”. Further, the “initial protrusion response (kinetics)” value in the assay on MTLn3 cells [4] (MTLn3-GFP-Mena^INV, 10 μM, 0.5 nM EGF, up to 3 min post-stimulation) is recorded as “still demonstrated the fast initial protrusion response”; in the assay with MDA-MB231 cells [5] (MDA-MB231-GFP-Mena^INV, 10 μM, 0.25 nM EGF, up to 3 min post-stimulation) it was “still demonstrated the fast initial protrusion response”.

The values above are taken from patent US10928397B2, “Methods involving MenaINV in screening for inhibitors of cancer invasion and metastasis” (MASSACHUSETTS INSTITUTE OF TECHNOLOGY, priority 2012, dated 2021).
